Results on one compound are retold here after patent publication US20100130619A1, “PHARMACEUTICAL COMPOSITION FOR PARENTERAL ADMINISTRATION OF IDEBENONE” (priority 2008, published 2010).

Data set [1] concerns cultured cortical neurons. To be noted: cited from earlier work.
The conditions of data set [2]: oral; cited from earlier work.
In data set [3] the test system is microsomal lipid peroxidation. The settings on record: cited from earlier work.
For another data set, the system named is Friedreich's Ataxia. The settings on record: cited from earlier work.
The test system of data set [4] is learning and memory disturbances. The settings on record: rats; cited from earlier work.
The test system of the next data set is cerebrovascular disease. The settings on record: nine patients, 90 mg daily; cited from earlier work.
The nature of the next data set: Solubility of Idebenone. In kind it is physicochemical. The source says: The low water solubility of Idebenone makes the task of producing an injectable form very difficult. Use of water miscible solvents (alcohol, propylene glycol, liquid PEG, N-methylpyrrolidone, etc.), where Idebenone dissolves well, is inappropriate due to the immediate precipitation of the drug upon contact with physiological fluids or a water phase. An inclusion complex of Idebenone with cyclodextrin has been described, but it is water dispersible, not soluble and not suitable for injection. The solubility of Idebenone in fixed oils (soy, corn, almond, etc.) is low; drug precipitates from such emulsions during storage, limiting their use for the preparation of injectable forms of […].

`COC1=C(OC)C(=O)C(CCCCCCCCCCO)=C(C)C1=O` [Idebenone, 2,3-dimethoxy-5-methyl-6-(10-hydroxydecyl)-1,4-benzoquinone]: the “rescue on delayed application” value in data set [1] (applied 30 minutes after the NMDA pulse) is “rescues cortical neurons”. In addition, the “protection against necrotic degeneration” value in data set [1] (cultured cortical neurons) is on record as “protects cultured cortical neurons against necrotic degeneration”. Moreover, the bioavailability entry in data set [2] is on record as “relatively high”. The free radical scavenging result in data set [3] (cell cultures) is “scavenges a variety of free radical species”. In data set [3] (induced by ADP-iron complexes or organic hydroperoxides), the microsomal lipid peroxidation entry is on record as “inhibits microsomal lipid peroxidation”. For the same compound, the “marker of oxidative DNA damage” value with Friedreich's Ataxia (oral 5 mg/kg daily for 8 weeks) is given as “significantly decreased”. Moreover, the left ventricular enlargement entry in the data set with Friedreich's Ataxia (three patients, 5 mg/kg daily for 4-9 months) is on record as “reduction of left ventricular enlargement”. Also, the “learning and memory disturbances” value in data set [4] was “ameliorates learning and memory disturbances”. In addition, the “EEG and clinical symptoms” value in the data set on cerebrovascular disease was “improvements in EEG and clinical symptoms”. Further, in the data set “Solubility of Idebenone” (fixed oils (soy, corn, almond, etc.)), the “solubility in fixed oils” value is on record as “low”. The water solubility entry in “Solubility of Idebenone” (water) is recorded as “low”.
